# Laboratory results reported in patent US7683061B2, “Triazine dimers for the treatment of autoimmune diseases” (ProMetic BioSciences Inc., priority 2003, dated 2010).
# Like-named read-outs stand apart in the source and are kept apart here.
# Columns and labels:
# [1] = tested on: TNFα-induced apoptosis, WEHI-13VAR cells; assay: TNFα induced apoptosis in WEHI-13VAR cells (MTT); assay type: cell-based, murine; details: Mus musculus; for inhibition at 10 µM: 1 × 10^−5M; for inhibition at 20 µM: 2 × 10^−5M; for inhibition at 40 µM: 4 × 10^−5M; for inhibition at 5 µM: 5 × 10^−6M
# Protocol: Effect of compounds on TNFα-induced apoptosis was measured by a standard biological assay using WEHI-13VAR cells. These cells undergo apoptosis when they are incubated in the presence of TNFα and actinomycin D. 2×10^4 WEHI-13VAR cells were incubated in RPMI supplemented with 1% sodium pyruvate and 10% FBS, overnight at 37° C. for cell adherence. The cells were then cultured in the presence of 1 μg/mL of actinomycin D (to inhibit protein synthesis) and 0.04 nM TNFα with or without compounds at 37° C. After 16-24 h, 50 μL of a solution of 2 mg/mL of MTT was added to each well and the plate was then incubated for 4 h at 37° C. Only viable cells metabolize MTT to form formazan salt, which is detectable by the measurement of absorbance at 570 nm. After the incubation, the plate was inverted to remove medium and dead cells. 150 μL DMSO was added to each well to stop the reaction and solubilize the formazan salt. Optical density was read on a EL 800, universal Microplate reader (Bio-Tek). A decrease in the optical density is direct evidence of cell apoptosis induced by TNFα. Compounds were also compared to the activity of an anti-TNFα neutralizing antibody.
# [2] = target: T1, Fc portion of human IgG (binding of protein A to human IgG); assay: Competitive protein A binding ELISA
# T1 construct: fused on or other part: Horseradish peroxidase chemically conjugated to the IgG (HRP-IgG)
# Protocol: As described above, this assay evaluates the ability of the exemplified compounds to mimic protein A. Such compounds can bind to the Fc portion of human IgG as ascertained by the inhibition of binding of protein A to human IgG. The competitive protein A binding ELISA assay was performed on a 96-well plate Maxisorp surface to enhance the binding of protein A to the bottom of the plate. The wells were coated with 100 μL of protein A (0.8 μg) and incubated overnight at 4° C. After incubation, unbound protein A was removed by three washes with phosphate buffer saline (PBS). The plate was then incubated with 100 μL/well of a 2% solution of bovine serum albumin (BSA) for 1 h at 37° C. to block non specific protein binding. After incubation, the plate was washed to times with PBS. 50 μL of compound or protein A, diluted in PBS or PBS-20% DMSO at appropriate concentration, were added to the wells followed by addition of 50 μL of peroxidase-conjugated human IgG (HRP-IgG). After 1 h incubation at 37° C., the plate was washed free times with PBS to remove unbound HRP-IgG. Bound HRP-IgG was detected by incubation with 100 μL of 2,2′-Azino-di[3-ethylbenzothiazoline sulfonate]diammonium salt crystals (ABTS) solution for 20 min in the dark at room temperature. The plate was then read at 405 nm on a EL 800, universal Microplate reader (Bio-Tek). Data was analyzed in Microsoft Excel and the concentration of compound which inhibits 50% binding of protein A (IC50) was calculated using Prism software.
# Table 1 represents the IC50 of compounds tested in the competitive protein A binding ELISA assay, which consists of a side-by-side analysis in PBS and PBS-20% DMSO. DMSO was used to increase the solubility of some of the compounds.
# [3] = tested on: TNFα production, J774A-1 cells; assay: LPS-induced TNFα production in J774A-1 cells (ELISA); assay type: cell-based; details: Mus musculus, J774.A1, 24 h, read-out: IC50 (μM), inhibition of TNFα released by LPS induction
# Protocol: Effect of compounds on TNFα production was measured by ELISA using J774-1 cells stimulated by LPS. J774-1 cells were cultured in the presence or absence of LPS and compound. Cells were cultured at 37° C. for 24 h and thereafter the supernatants were collected for the determination of the concentration of TNFα by ELISA as recommended by the manufacturer (BD Biosciences). Data was analyzed in Microsoft Excel and the concentration of compound which inhibits 50% of TNFα production (IC50) was calculated using Prism software.
# [4] = Table 1, PBS-20% DMSO, read-out: IC50 (μM): Assay in PBS-20% DMSO
# [5] = Table 1, PBS, read-out: IC50 (μM): Assay in PBS
# [6] = Table 2, PBS-20% DMSO, n = 5 or 6, read-out: IC50 (n = 5 or 6) PBS-20% DMSO
# [7] = Table 2, PBS, n = 5 or 6, read-out: IC50 (n = 5 or 6) PBS
Structure (SMILES),"IC50 [2, 4] [µM]","IC50 [2, 5] [µM]",other results
COC(=O)c1ccccc1Nc1nc(NCCNc2nc(NCCc3ccc(O)cc3)nc(Nc3ccccc3C(=O)OC)n2)nc(NCCc2ccc(O)cc2)n1 [Compound 2],,,inhibition at 10 µM [1]: 43.7%; inhibition at 20 µM [1]: 48.4%; inhibition at 40 µM [1]: 48.3%; inhibition at 5 µM [1]: 37.3%
COC(=O)[C@H](Cc1ccc(O)cc1)Nc1nc(NCCNc2nc(NCCc3cc4ccccc4[nH]3)nc(N[C@@H](Cc3ccc(O)cc3)C(=O)OC)n2)nc(NCCc2cc3ccccc3[nH]2)n1 [Compound 8],28,,
O=C(O)c1ccccc1Nc1nc(NCCNc2nc(NCCc3ccc(O)cc3)nc(Nc3ccccc3C(=O)O)n2)nc(NCCc2ccc(O)cc2)n1 [Compound 9],50,,
OCCNc1nc(NCCc2ccc(Oc3nc(NCCc4ccc(O)cc4)nc(Nc4ccccc4)n3)cc2)nc(Nc2ccccc2)n1 [Compound 21],,,IC50 [3]: 4.8 µM
COc1ccccc1Nc1nc(NCCN)nc(NCCc2ccc(Nc3nc(NCCc4ccc(O)cc4)nc(Nc4ccccc4)n3)cc2)n1 [Compound 22],,,IC50 [3]: 62.1 µM
COc1ccccc1Nc1nc(NCCCCN)nc(NCCc2ccc(Oc3nc(NCCc4ccc(O)cc4)nc(Nc4ccccc4)n3)cc2)n1 [Compound 23],,,IC50 [3]: 16.5 µM
NCCCNc1nc(NCCc2ccc(Nc3nc(NCCc4ccc(O)cc4)nc(Nc4ccccc4)n3)cc2)nc(Nc2ccccc2)n1 [Compound 24],,,IC50 [3]: 11.5 µM
OCCNc1nc(NCC2CCN(c3nc(NCCO)nc(Nc4ccccc4)n3)CC2)nc(Nc2ccccc2)n1 [Compound 26],,,inhibition at 10 µM [1]: 27.3%; inhibition at 20 µM [1]: 38%; inhibition at 40 µM [1]: -11.5%; inhibition at 5 µM [1]: 9.7%
Oc1ccc(CCNc2nc(Nc3ccccc3)nc(Nc3cccc(Nc4nc(NCCc5ccc(O)cc5)nc(Nc5ccccc5)n4)c3)n2)cc1 [Compound 38],,,IC50 [3]: 9.5 µM
NCCNc1nc(NCc2cccc(CNc3nc(NCCc4ccc(O)cc4)nc(Nc4ccccc4)n3)c2)nc(Nc2ccccc2)n1 [Compound 40],,,IC50 [3]: 87.2 µM
Nc1cccc(Nc2nc(N)nc(NCc3ccc(CNc4nc(N)nc(Nc5cccc(N)c5)n4)cc3)n2)c1 [Compound 41],0.02,0.03,
Nc1cccc(Nc2nc(NCCO)nc(Nc3ccc(CNc4nc(Nc5cccc(N)c5)nc(Nc5cccc(N)c5)n4)cc3)n2)c1 [Compound 42],0.05,0.05,inhibition at 10 µM [1]: -1.7%; inhibition at 20 µM [1]: 0.5%; inhibition at 40 µM [1]: 30.4%; inhibition at 5 µM [1]: -3.1%
Nc1cccc(Nc2nc(NCCO)nc(Nc3cccc(CNc4nc(Nc5cccc(N)c5)nc(Nc5cccc(N)c5)n4)c3)n2)c1 [Compound 43],0.05,0.08,
Nc1cccc(Nc2nc(NCCO)nc(N3CCN(c4nc(Nc5cccc(N)c5)nc(Nc5cccc(N)c5)n4)CC3)n2)c1 [Compound 44],0.04,0.09,
Nc1cccc(CNc2nc(Nc3ccc(CNc4nc(N)nc(Nc5cccc(N)c5)n4)cc3)nc(Nc3cccc(N)c3)n2)c1 [Compound 45],0.08,0.1,inhibition at 10 µM [1]: 2.9%; inhibition at 20 µM [1]: 4.1%; inhibition at 40 µM [1]: 32.9%; inhibition at 5 µM [1]: -0.3%
Nc1cccc(Nc2nc(N)nc(Nc3cccc(Nc4nc(NCCO)nc(Nc5cccc(N)c5)n4)c3)n2)c1 [Compound 46],0.8,0.2,
Nc1cccc(Nc2nc(NCCO)nc(Nc3ccc(Nc4nc(NCCO)nc(Nc5cccc(N)c5)n4)cc3)n2)c1 [Compound 47],0.2,0.2,
Nc1ccc(CNc2nc(NCc3ccc(CNc4nc(NCc5ccc(N)cc5)nc(Nc5cccc(N)c5)n4)cc3)nc(Nc3cccc(N)c3)n2)cc1 [Compound 48],0.05,0.2,
Nc1cccc(Nc2nc(NCCO)nc(Nc3cccc(Nc4nc(NCCO)nc(Nc5cccc(N)c5)n4)c3)n2)c1 [Compound 49],0.5,0.3,
Nc1cccc(Nc2nc(Nc3cccc(Nc4nc(Nc5cccc(N)c5)nc(NC(CO)CO)n4)c3)nc(NC(CO)CO)n2)c1 [Compound 50],1,0.4,
Nc1cccc(Nc2nc(N)nc(Nc3cccc(Nc4nc(N)nc(Nc5cccc(N)c5)n4)c3)n2)c1 [Compound 51],6,0.6,

# Continued, in another order:
"IC50 [2, 4] [µM]","IC50 [2, 5] [µM]",Structure (SMILES),other results
0.4,2.4,Nc1ccc(CNc2nc(NCCNc3nc(NCc4ccc(N)cc4)nc(Nc4ccccc4)n3)nc(Nc3ccccc3)n2)cc1 [Compound 6],
85,69,O=C(O)[C@H](Nc1nc(NCCNc2nc(NCCc3ccc(O)cc3)nc(N[C@@H](C(=O)O)c3ccccc3)n2)nc(NCCc2ccc(O)cc2)n1)c1ccccc1 [Compound 10],
45,,Oc1ccc(CCNc2nc(NCCNc3nc(NCCc4ccc(O)cc4)nc(Sc4ccccc4)n3)nc(Sc3ccccc3)n2)cc1 [Compound 11b],IC50 [3]: 23.3 µM
70,33,NCCNc1nc(NCCc2ccc(Oc3nc(NCCc4ccc(O)cc4)nc(Nc4ccccc4)n3)cc2)nc(Nc2ccccc2)n1 [Compound 13],IC50 [3]: 13.4 µM
35,,CC(=O)NCCNc1nc(NCCc2ccc(Nc3nc(NCCc4ccc(O)cc4)nc(Nc4ccccc4)n3)cc2)nc(Nc2ccccc2)n1 [Compound 15],IC50 [3]: 14.2 µM
55,36,NCCCCNc1nc(NCCc2ccc(Nc3nc(NCCc4ccc(O)cc4)nc(Nc4ccccc4)n3)cc2)nc(Nc2ccccc2)n1 [Compound 16],IC50 [3]: 13.6 µM
28,,Oc1ccc(CCNc2nc(Nc3ccccc3)nc(Nc3ccc(CNc4nc(NCCc5cnc[nH]5)nc(Nc5ccccc5)n4)cc3)n2)cc1 [Compound 27],
0.003,0.2,Nc1ccc(CCNc2nc(Nc3cccc(N)c3)nc(N3CCN(c4nc(NCCc5ccc(N)cc5)nc(Nc5cccc(N)c5)n4)CC3)n2)cc1 [Compound 29],"IC50 [2, 6]: 0.0029 µM; IC50 [2, 7]: 0.225 µM"
0.03,0.4,Nc1ccc(CCNc2nc(NCC3CCN(c4nc(NCCc5ccc(N)cc5)nc(Nc5cccc(N)c5)n4)CC3)nc(Nc3cccc(N)c3)n2)cc1 [Compound 30],"IC50 [2, 6]: 0.033 µM; IC50 [2, 7]: 0.426 µM"
0.12,0.99,Nc1ccc(CCNc2nc(NCCCCCCNc3nc(NCCc4ccc(N)cc4)nc(Nc4cccc(N)c4)n3)nc(Nc3cccc(N)c3)n2)cc1 [Compound 31],
2,33,Nc1ccc(CCNc2nc(NCC3CCN(c4nc(NCCc5ccc(N)cc5)nc(Nc5ccccc5)n4)CC3)nc(Nc3ccccc3)n2)cc1 [Compound 32],
1,23,Cc1ccc(Nc2nc(NCCc3ccc(N)cc3)nc(Nc3ccccc3)n2)cc1CNc1nc(NCCO)nc(Nc2ccccc2)n1 [Compound 34],
1,23,Nc1ccc(CCNc2nc(Nc3ccccc3)nc(Nc3cccc(CNc4nc(NCCO)nc(Nc5ccccc5)n4)c3)n2)cc1 [Compound 35],
16,,Nc1ccc(CCNc2nc(Nc3ccccc3)nc(N3CCN(c4nc(NCCc5ccc(N)cc5)nc(Nc5ccccc5)n4)CC3)n2)cc1 [Compound 36],
23,,Oc1ccc(CCNc2nc(NCc3ccccc3Nc3nc(NCCc4ccc(O)cc4)nc(Nc4ccccc4)n3)nc(Nc3ccccc3)n2)cc1 [Compound 37],
43,,Oc1ccc(CCNc2nc(Nc3ccccc3)nc(N[C@H](COc3nc(NCCc4ccc(O)cc4)nc(Nc4ccccc4)n3)c3ccccc3)n2)cc1 [Compound 39],
